From the supplement of paper PMC10307832

Assays:
Assay in all cases: relative viability (nuclei count vs DMSO), 5 days (fraction); higher = more cells survive
kb NB 142-70 + Foretinib = compound: C1CSC2=C(C(=O)N1)SC3=C2C=C(C=C3)O [kb NB 142-70] + COc1cc2c(Oc3ccc(NC(=O)C4(C(=O)Nc5ccc(F)cc5)CC4)cc3F)ccnc2cc1OCCCN1CCOCC1 [Foretinib] (partner 0.25 µM)
In short: (§1)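 Lung cancer cell lines in 1536-well plates got either a single drug or a fixed anchor-drug dose together with five library-drug doses (not always all listed) in √10 steps, by pin tool, on the day after seeding. Nuclei were counted after 5 days, and relative viability is the treated-to-vehicle ratio of nuclei counts. Values are medians of duplicate plates.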

[1] = compound: NCC(=O)Nc1ccc(-n2nc(C(F)(F)F)cc2-c2ccc3c(ccc4ccccc43)c2)cc1 + COc1cccc2cc(-c3nc([C@H]4CC[C@H](C(=O)O)CC4)n4ncnc(N)c34)[nH]c12 [OSI-027] (partner 0.5 µM)
In short: as §1

[2] = compound: NCC(=O)Nc1ccc(-n2nc(C(F)(F)F)cc2-c2ccc3c(ccc4ccccc43)c2)cc1 + CS(=O)(=O)CCNCc1ccc(-c2ccc3ncnc(Nc4ccc(OCc5cccc(F)c5)c(Cl)c4)c3c2)o1 [Lapatinib] (partner 2 µM)
In short: as §1

[3] = compound: NCC(=O)Nc1ccc(-n2nc(C(F)(F)F)cc2-c2ccc3c(ccc4ccccc43)c2)cc1 + Nc1nc2[nH]cc(CCc3ccc(C(=O)N[C@@H](CCC(=O)O)C(=O)O)cc3)c2c(=O)[nH]1 [Pemetrexed] (partner 0.2 µM)
In short: as §1

Row | Cell Line | relative viability (kb NB 142-70 + Foretinib; first compound 0.1 µM) | relative viability (kb NB 142-70 + Foretinib; first compound 1 µM) | relative viability (kb NB 142-70 + Foretinib; first compound 3.162 µM) | relative viability ([1]; first compound 0.02 µM) | relative viability ([1]; first compound 0.06325 µM) | relative viability ([1]; first compound 0.2 µM) | relative viability ([1]; first compound 0.6325 µM) | relative viability ([1]; first compound 2 µM) | relative viability ([2]; first compound 0.02 µM) | relative viability ([2]; first compound 0.06325 µM) | relative viability ([2]; first compound 0.2 µM) | relative viability ([2]; first compound 0.6325 µM) | relative viability ([2]; first compound 2 µM) | relative viability ([3]; first compound 0.02 µM) | relative viability ([3]; first compound 0.06325 µM) | relative viability ([3]; first compound 0.2 µM) | relative viability ([3]; first compound 0.6325 µM) | relative viability ([3]; first compound 2 µM)
1 | 201T | 1.07 | 1.17 | 1.08 | 0.806 | 0.769 | 0.724 | 0.649 | 0.606 | 1.04 | 1.07 | 0.996 | 1.08 | 1.04 | 0.321 | 0.32 | 0.326 | 0.301 | 0.311
2 | A549 | 0.997 | 0.95 | 0.563 |  |  |  |  |  | 1.02 | 1.02 | 0.994 | 1.03 | 0.95 |  |  |  |  | 
3 | A-427 | 1.14 | 1.25 | 0.929 |  | 0.454 | 0.438 | 0.496 | 0.457 | 1.08 | 1.11 | 1.14 | 1.04 | 1.11 | 1 | 0.975 | 1.02 | 0.974 | 0.957
4 | ABC-1 | 1.11 | 0.979 | 0.677 | 0.558 | 0.409 |  | 0.471 | 0.542 | 1.26 | 1.01 | 0.983 | 1.05 | 1.11 |  |  |  |  | 
5 | BEN | 0.535 | 0.648 | 0.486 | 0.281 | 0.32 | 0.296 | 0.326 | 0.297 | 0.738 | 1.11 | 0.701 | 0.708 | 0.542 | 0.782 | 0.869 | 0.775 | 0.758 | 0.688
6 | CAL-12T | 1.03 | 1.18 | 0.837 | 0.619 | 0.651 | 0.644 | 0.604 | 0.621 | 0.671 | 0.823 | 0.672 | 0.709 | 0.679 | 1.11 | 1.2 | 1.2 | 1.12 | 0.97
7 | COR-L23 | 1.06 | 1.04 | 0.457 | 0.765 | 0.894 | 0.836 | 0.693 | 0.755 | 0.97 | 0.997 | 1.2 | 0.938 | 0.659 | 0.197 | 0.203 | 0.209 | 0.169 | 0.202
8 | COR-L 105 | 1.11 | 1.03 | 1 | 0.593 | 0.626 | 0.623 | 0.776 | 0.6 | 0.418 | 0.33 | 0.401 | 0.39 | 0.437 | 1.19 | 1.21 | 1.09 | 1.23 | 1.01
9 | Calu-6 | 0.809 | 0.896 | 0.54 |  |  |  |  |  | 0.969 | 1.12 | 1.19 | 1.16 | 0.963 |  |  |  |  | 
10 | ChaGo-K-1 | 0.89 | 0.967 | 0.862 | 0.475 | 0.661 | 0.468 | 0.592 | 0.548 |  |  |  |  |  | 0.256 | 0.263 | 0.263 | 0.27 | 0.264
11 | EBC-1 | 0.0986 | 0.12 | 0.0991 |  |  |  |  |  | 0.21 | 0.219 | 0.215 | 0.222 | 0.226 |  |  |  |  | 
12 | EKVX | 0.834 | 0.903 | 0.86 | 0.729 | 0.646 | 0.673 | 0.674 | 0.737 | 0.213 | 0.216 | 0.228 | 0.223 | 0.203 | 0.38 | 0.358 | 0.408 | 0.439 | 0.403
13 | EMC-BAC-2 | 0.994 | 1.01 | 0.581 | 0.292 | 0.367 | 0.371 | 0.361 | 0.387 | 0.859 | 0.925 | 0.903 | 0.9 | 0.891 | 0.403 | 0.457 | 0.465 | 0.421 | 0.408
14 | EPLC-272H | 0.696 | 0.725 | 0.255 | 0.307 | 0.246 | 0.28 | 0.311 | 0.274 | 0.88 | 1.09 | 0.85 | 0.907 | 1.21 | 0.275 | 0.395 | 0.308 | 0.356 | 0.315
15 | H3255 | 0.742 | 0.946 | 1.05 | 0.557 | 0.617 | 0.629 | 0.667 | 0.596 | 0.276 | 0.268 | 0.231 | 0.258 | 0.268 | 0.561 | 0.49 | 0.552 | 0.565 | 0.601
16 | HARA | 0.771 | 0.521 | 0.867 | 0.434 | 0.582 | 0.597 | 0.549 | 0.596 | 0.649 | 0.801 | 0.829 | 0.822 | 0.989 | 0.253 | 0.241 | 0.258 | 0.245 | 0.246
17 | HCC-15 | 1.01 | 1.13 | 0.946 | 0.675 | 0.679 | 0.689 | 0.658 | 0.697 | 0.847 | 0.876 | 0.839 | 0.821 | 0.812 | 0.209 | 0.209 | 0.212 | 0.217 | 0.229
18 | HCC-44 |  |  |  | 0.461 | 0.743 | 0.592 | 0.651 | 0.497 | 1.02 | 1.16 | 0.974 | 1.03 | 1.05 | 0.634 | 0.624 | 0.682 | 0.657 | 0.63
19 | HCC-78 | 0.496 | 0.585 | 0.614 | 0.402 | 0.375 | 0.329 | 0.347 | 0.41 | 0.819 | 1.04 | 0.745 | 0.742 | 0.342 | 0.977 | 0.894 | 0.884 | 0.903 | 0.89
20 | HCC-366 | 0.93 | 0.858 | 0.895 | 0.829 | 1.08 | 1.09 | 0.848 | 0.816 | 1.04 | 1.07 | 1.12 | 0.997 | 0.698 | 0.173 | 0.149 | 0.183 | 0.162 | 0.282
